Assay results published in patent publication US10357533B2, “Drug for the effective control of acute and or chronic pain and a method for its administration” (PVP LABS PTE. LTD., priority 2016, dated 2019).
Where a SMILES comes first, the peptide text is derived from it. [ ]: non-standard residue; d: D form.

Tests used:
Type in all cases: in vivo
mice [1] = assay: Duration of analgesic effect in the tail flick test in mice
Protocol: (§1) This stage involved selecting the effective doses of peptide compound in the tail flick test in mice after a single subcutaneous administration of the substance at doses of 0.01, 0.05, 0.1, 0.5, 0.7, 1 and 5 mg/kg. Tail flick method is based on a spinal flexion reflex in response to a progressively increasing effect of thermal radiation on the surface of skin. A pain stimulus was applied to the tail locally, by the action of thermal radiation, using a TSE Systems analgesiometer (Germany). Stimulus intensity was set, corresponding to an increase in temperature from 30° C. to 60° C. over 13 seconds. The tail flick latency (TFL) of 13 seconds was used as the maximum allowable time of stimulation. The mice in test groups were given peptide compound, and control group mice were given the solvent (water for injections) by subcutaneous. Tail flick latency was evaluated 40 minutes after the administration of the study substance or solvent. The analysis of experimental results involved calculating the maximum possible effect (MPE).
The duration of analgesic effect of peptide compound was evaluated in the tail flick test in mice as described above.
Peptide compound was administered to mice subcutaneously at a doses of 0.5 mg/kg, 1.5 mg/kg and 4.5 mg/kg. The control group of animals was given a subcutaneous injection of the vehicle (water for injections). TFL test was evaluated in mice that received peptide compound at 30 minutes and at 1, 2, 4, 6, and 8 hours after dosing.

mice [2] = assay: Balancing on a horizontal rod test in mice
Protocol: The substance was injected intraperitoneally in identical weight amounts to laboratory animals in the experimental and control groups, respectively. […] The measurement was started 15 minutes after injection.
Animals were placed on a wooden rod with a diameter of 2 cm and 40 cm long, at a height of not less than 60 cm. Then we recorded the duration maintenance of equilibrium on the rod. We processed the results using single factor dispersal analysis ANOVA.

mice [3] = assay: Acetic acid-induced writhing test in mice; conditions: for Number of writhings, n (Mean ± SEM): 15 minutes count
Protocol: The acetic acid-induced writhing test is a model of a chemical nociceptive stimulus applied by the intraperitoneal injection of acetic acid solution.
Intraperitoneal injection of substances that irritate serous membranes in mice induces distinctive movements, including contractions of abdominal muscles followed by muscle relaxation, extension of the hind limbs and curving of the back, known as writhing. Mice were given an intraperitoneal injection of 1% acetic acid at a dose of 0.1 mL per 10 g body weight. After the injection the mice were placed in transparent acrylic chambers and counted the number of writhings in each animal for the next 15 minutes. The analgesic effect was evaluated by a reduction in the number of writhings in mice that received the study drug relative to the control group. […] Writhing onset latency in mice was used as an additional parameter for evaluating the efficacy of the substance in the acetic acid-induced writhing test.

mice [4] = assay: Antinociceptive tolerance and withdrawal syndrome, tail flick test in mice; conditions: for TFL, s, Baseline values (Mean ± SEM): before administering
Protocol: The tail flick test was the main method of evaluating peptide compound antinociceptive tolerance and withdrawal syndrome. The test involved evaluating tail flick latency (TFLtest). Baseline tail flick latency TFLbase was evaluated before administering the substances. The test was performed in outbred male mice.
The animals were randomized into 4 groups of 10 animals in each group: Group 1: control—the animals were administered subcutaneous injections of water for injections for 14 days; Group 2: single peptide compound administration group—the animals were administered water for injections for 13 days and peptide compound at a dose of 0.5 mg/kg on day 14 by subcutaneous injection; Group 3: chronic peptide compound administration group—the animals were administered with peptide compound at a dose of 0.5 mg/kg by subcutaneous injection for 14 days; Group 4: withdrawal group—the animals were administered with peptide compound at a dose of 0.5 mg/kg by subcutaneous injection for 14 days, withdrawal test was evaluated after 48 hours.
The last injection of the drug/water to groups 1-3 was administered 40 minutes before the test.

mice [5] = assay: Tail flick test in mice, dose-dependent analgesic effect
Protocol: as §1

[6] = 0.5 mg/kg subcutaneous for 14 days, withdrawal test after 48 hours
[7] = 0.05 mg/kg subcutaneous, 40 minutes
[8] = 0.1 mg/kg subcutaneous, 40 minutes
[9] = 0.5 mg/kg subcutaneous, 40 minutes
[10] = 0.7 mg/kg subcutaneous, 40 minutes
[11] = 1 mg/kg subcutaneous, 40 minutes
[12] = 5 mg/kg subcutaneous, 40 minutes

Question: Which results are given for N=C(N)NCCC[C@@H](NC(=O)[C@@H](N)Cc1ccc(O)cc1)C(=O)N[C@@H](Cc1ccccc1)C(=O)NCC(N)=O [Peptide compound, H-Tyr-D-Arg-Phe-Gly-NH2] (H-Y[dR]FG-NH2)?
Answer: MPE, % (Mean ± SEM) (mice [1]; 0.5 mg/kg subcutaneous, 0.5 hours): 45.6 ± 13.31%; MPE, % (Mean ± SEM) (mice [1]; 0.5 mg/kg subcutaneous, 1 hours): 49.9 ± 11.54%; MPE, % (Mean ± SEM) (mice [1]; 0.5 mg/kg subcutaneous, 2 hours): 15.5 ± 4.78%; MPE, % (Mean ± SEM) (mice [1]; 0.5 mg/kg subcutaneous, 4 hours): 6.3 ± 2.43%; MPE, % (Mean ± SEM) (mice [1]; 0.5 mg/kg subcutaneous, 6 hours): 6.3 ± 2.94%; MPE, % (Mean ± SEM) (mice [1]; 0.5 mg/kg subcutaneous, 8 hours): −2.6 ± 3.18%; MPE, % (Mean ± SEM) (mice [1]; 1.5 mg/kg subcutaneous, 0.5 hours): 97.2 ± 2.78%; MPE, % (Mean ± SEM) (mice [1]; 1.5 mg/kg subcutaneous, 1 hours): 62.7 ± 14.4%; MPE, % (Mean ± SEM) (mice [1]; 1.5 mg/kg subcutaneous, 2 hours): 33.4 ± 4.85%; MPE, % (Mean ± SEM) (mice [1]; 1.5 mg/kg subcutaneous, 4 hours): 25.6 ± 11.69%; MPE, % (Mean ± SEM) (mice [1]; 1.5 mg/kg subcutaneous, 6 hours): 4.6 ± 7.8%; MPE, % (Mean ± SEM) (mice [1]; 1.5 mg/kg subcutaneous, 8 hours): 5.3 ± 3.46%; MPE, % (Mean ± SEM) (mice [1]; 4.5 mg/kg subcutaneous, 0.5 hours): 100.0 ± 0.00%; MPE, % (Mean ± SEM) (mice [1]; 4.5 mg/kg subcutaneous, 1 hours): 100.0 ± 0.00%; MPE, % (Mean ± SEM) (mice [1]; 4.5 mg/kg subcutaneous, 2 hours): 100.0 ± 0.00%; MPE, % (Mean ± SEM) (mice [1]; 4.5 mg/kg subcutaneous, 4 hours): 49.9 ± 10.21%; MPE, % (Mean ± SEM) (mice [1]; 4.5 mg/kg subcutaneous, 6 hours): 6.5 ± 5.94%; MPE, % (Mean ± SEM) (mice [1]; 4.5 mg/kg subcutaneous, 8 hours): 2.6 ± 4.0%; maximum duration of the analgesic effect (mice [1]; after dosing with 1.5 mg/kg and 4.5 mg/kg): 4 h; reduced activity in horizontal movement on the rod (mice [2]; higher doses 20-100 mg/kg): 10-20%; maintaining balance on a horizontal rod, experimental vs control groups (mice [2]; intraperitoneally): did not observe significant differences; increase in writhing onset latency relative to the control group, factor (mice [3]; 0.25 mg/kg): 2.6; reduction of visceral pain (number of writhings) relative to the control group, factor (mice [3]; 0.25 mg/kg): 2.2; % of mice w/o writhing (mice [3]; 0.25 mg/kg subcutaneous): 0%; Number of mice w/o writhing/number of mice in group (mice [3]; 0.25 mg/kg subcutaneous): 0/9; Writhing onset latency, s (Mean ± SEM) (mice [3]; 0.25 mg/kg subcutaneous): 397.2 ± 69.95 s; Number of writhings, n (Mean ± SEM) (mice [3]; 0.25 mg/kg subcutaneous 40 minutes before acetic acid): 40.7 ± 4.50 n; animals that exhibited writhing (mice [3]; 0.25 mg/kg subcutaneously): 100%; animals in which the pain response was observed (mice [3]; 0.5 mg/kg): 40.0%; increase in writhing onset latency relative to the control group, factor (mice [3]; 0.5 mg/kg): 4.1; reduction of visceral pain (number of writhings) relative to the control group, factor (mice [3]; 0.5 mg/kg): 31.8; % of mice w/o writhing (mice [3]; 0.5 mg/kg subcutaneous): 40.0%; Number of mice w/o writhing/number of mice in group (mice [3]; 0.5 mg/kg subcutaneous): 4/10; Writhing onset latency, s (Mean ± SEM) (mice [3]; 0.5 mg/kg subcutaneous): 632.5 ± 80.62 s; Number of writhings, n (Mean ± SEM) (mice [3]; 0.5 mg/kg subcutaneous 40 minutes before acetic acid): 2.8 ± 1.00 n; animals in which the pain response was observed (mice [3]; 1 mg/kg): 55.6%; increase in writhing onset latency relative to the control group, factor (mice [3]; 1 mg/kg): 4.9; reduction of visceral pain (number of writhings) relative to the control group, factor (mice [3]; 1 mg/kg): 74.2; % of mice w/o writhing (mice [3]; 1 mg/kg subcutaneous): 55.6%; Number of mice w/o writhing/number of mice in group (mice [3]; 1 mg/kg subcutaneous): 5/9; Writhing onset latency, s (Mean ± SEM) (mice [3]; 1 mg/kg subcutaneous): 762.8 ± 55.76 s; Number of writhings, n (Mean ± SEM) (mice [3]; 1 mg/kg subcutaneous 40 minutes before acetic acid): 1.2 ± 0.49 n; MPE, % (Mean ± SEM) (mice [4]; 0.5 mg/kg subcutaneous chronic dosing for 14 days): 50.5 ± 13.92 %; TFL, s, After dosing (Mean ± SEM) (mice [4]; 0.5 mg/kg subcutaneous chronic dosing for 14 days, 40 minutes before the test): 8.6 ± 1.25 s; MPE, % (Mean ± SEM) (mice [4]; [6]): 1.3 ± 3.72%; TFL, s, After dosing (Mean ± SEM) (mice [4]; [6]): 4.8 ± 0.36 s; MPE, % (Mean ± SEM) (mice [4]; 0.5 mg/kg subcutaneous single dose on day 14): 43.3 ± 11.19 %; TFL, s, After dosing (Mean ± SEM) (mice [4]; 0.5 mg/kg subcutaneous single dose on day 14, 40 minutes before the test): 8.0 ± 1.03 s; tolerance or withdrawal syndrome (mice [4]; 0.5 mg/kg subcutaneously, single dosing or chronic treatment): lack of tolerance or withdrawal syndrome; TFL, s, Baseline values (Mean ± SEM) (mice [4]; group 0.5 mg/kg chronic dosing): 4.6 ± 0.26 s; TFL, s, Baseline values (Mean ± SEM) (mice [4]; group 0.5 mg/kg single dose): 4.5 ± 0.36 s; TFL, s, Baseline values (Mean ± SEM) (mice [4]; group 0.5 mg/kg withdrawal): 4.7 ± 0.24 s; Proportion of the maximum possible effect (MPE), % (mice [5]; 0.01 mg/kg subcutaneous, 40 minutes): 18.7%; TFL, s (Mean ± SEM) (mice [5]; 0.01 mg/kg subcutaneous, 40 minutes after administration): 5.89 ± 0.19 s; Proportion of the maximum possible effect (MPE), % (mice [5]; [7]): 42.5%; TFL, s (Mean ± SEM) (mice [5]; [7]): 7.97 ± 0.78 s; Proportion of the maximum possible effect (MPE), % (mice [5]; [8]): 47.0%; TFL, s (Mean ± SEM) (mice [5]; [8]): 8.36 ± 0.68 s; Proportion of the maximum possible effect (MPE), % (mice [5]; [9]): 55.7%; TFL, s (Mean ± SEM) (mice [5]; [9]): 9.12 ± 0.92 s; Proportion of the maximum possible effect (MPE), % (mice [5]; [10]): 57.5%; TFL, s (Mean ± SEM) (mice [5]; [10]): 10.15 ± 0.74 s; Proportion of the maximum possible effect (MPE), % (mice [5]; [11]): 94.6%; TFL, s (Mean ± SEM) (mice [5]; [11]): 12.53 ± 0.24 s; Proportion of the maximum possible effect (MPE), % (mice [5]; [12]): 100%; TFL, s (Mean ± SEM) (mice [5]; [12]): 13.00 ± 0 s; higher level of activity in comparison with morphine (mice [5]; tail flick): 10-15 times; dose of morphine with close activity (mice [5]; tail flick, peptide compound 0.1 mg/kg dose): ~4 mg/kg; dose of morphine with close activity (mice [5]; tail flick, peptide compound 0.5 mg/kg dose): 7 to 8 mg/kg; dose at which the effect of full analgesia was observed (mice [5]; tail flick, subcutaneous): 1 mg/kg
